Where two headings read alike, the source gives them in different places.
Tests used:
[1] = tested on: human neonatal dermal fibroblast (Cryo NHDF-Neo); test: cells; conditions: for effect of pre-irradiation addition on viable cells and cell death (in words): pre-irradiation addition 0.001 to 100 μM, UV-A 9 J/cm^2
Protocol: The ultraviolet irradiation after switching into a medium added with 0.1 μM (micro-molar) D-proline was employed as a positive control, while the ultraviolet irradiation to the medium still being free of such an added amino acid was employed as a negative control.
(degrees Celsius) for 40 hours.

[2] = tested on: Male hairless mice (Hos: HR-1); conditions: Example 3, 10 mM in drinking water; for effect on UV-B-induced wrinkling (in words): P=0.55% in Mann-Whitney U test; for number of animals of each wrinkle score after the UV-B irradiation: UV(+) control: one scored 5, two 6, two 7, three 8
Excerpt: (§1) Male hairless mice (Hos: HR-1, six-week old, Hoshino Laboratory Animals, Inc.) were employed and subjected to a partly modified method by Schwarz et al. (Haratake A. et al. J. Invest. Dermatol. 108:769-775, 1997.) in accordance with the repetitive UV-B irradiation method (Naganuma M. et al. J. Dermatol. Sci. 25:29-35, 2001. Schwartz E. J. Invest. Dermatol. 91:158-161, 1988.) whereby forming wrinkles. Thus, the dorsal region was irradiated with UV-B (light source: Toshiba FL-20 SE fluorescent lamp manufactured by Toshiba Electric) three times a week for 12 weeks. […] The total irradiation dose was 4.482 J/cm^2. The UV dose measured using UVRADIOMETER (UVR-305/365D (II), Topcon Corporation) was employed as a readout. During the UV-B irradiation, 10 mM D-methionine was given via a water supplier bottle. As a control, a tap water was given in the same manner. The water supplier bottle was exchanged once a week.
After the irradiation to the mice described above, the dorsal regions of the mice were photographed, and a partly modified method by Bissett et al. (Bissett D L. et al. Photochemistry and Photobiology 46:367-378, 1987.) was employed to evaluate the degree of wrinkling in accordance with the criteria indicated in Table 1 below. The wrinkle evaluation was performed separately by four observers, who thereafter consulted together to determine a score about the wrinkle grade (hereinafter, simply referred to as “score”).
During the UV-B irradiation, 10 mM L- or D-methionine was given via a water supplier bottle. The UV irradiation and the wrinkling determination were conducted by the methods described in Example 2.

[3] = tested on: Male hairless mice (Hos: HR-1)
Excerpt: as §1
After the end of the UV irradiation, the skin thickness was measured using a thickness gauge (Mitsutoyo Corporation, PK-1012SU). The measured value of the skin thickness was designated as “skin thickness×2”, since the measurement was conducted by pinching the skin with the thickness gauge.

[4] = tested on: Male hairless mice (Hos: HR-1); conditions: Example 2, 10 mM in drinking water
Excerpt: as §1
After the irradiation to the mice described above, the dorsal regions of the mice were photographed, and a partly modified method by Bissett et al. (Bissett D L. et al. Photochemistry and Photobiology 46:367-378, 1987.) was employed to evaluate the degree of wrinkling in accordance with the criteria indicated in Table 1 below. […]

[5] = tested on: human neonatal dermal fibroblast (Cryo NHDF-Neo); test: Ultraviolet irradiation-induced damage test in cultured cell, post-irradiation addition (Alamar Blue); conditions: UV-A 8 J/cm^2
Protocol: The cell employed was a commercially available human neonatal dermal fibroblast (Cryo NHDF-Neo, Sanko-Junyaku Co., Ltd.). This cell was inoculated at 2×10^5 cells/mL to a commercially available culture dish of 35 mm in diameter (BD FALCON 353001, Becton Dickinson Japan), where it was cultured in a commercially available cell culture medium (D-MEM (1 g/L glucose, Wako Pure Chemical Industries, Ltd.) supplemented with 10% fetal bovine serum and 1% antibiotic (15240-062, GIBCO) (hereinafter, referred to as “ordinary medium”). This cell was cultured for about 24 hours in a 5% CO2 and saturated water vapor atmosphere at 37° C. (degrees Celsius).
Thereafter, the culture medium for culturing the cell described above was switched to 1 mL of a BSO medium supplemented with a glutathione biosynthesis inhibitor BSO (L-buthionine-(S,R)-sulfoximine, Wako Pure Chemical Industries, Ltd.) at 1×10^−3%, where the culture was conducted for about 24 hours in a 5% CO2 and saturated water vapor atmosphere at 37° C. […] The BSO medium described above was prepared by a 200-fold dilution of a stock solution containing 0.2% BSO dissolved in ethyl alcohol with the ordinary medium described above.
Ferric chloride (II) was dissolved in a distilled water at 2×10^−3%, and the resultant solution was subjected to a 200-fold dilution (final concentration: 1×10^−5%) with a phosphate buffer solution PBS (+) containing calcium ion and magnesium ion to obtain a medium (hereinafter, referred to as “UV irradiation medium”), which was warmed preliminarily to 37° C. before use.
Before UV-A irradiation, the culture medium was replaced with 1 mL of the UV irradiation medium described above. […] The UV dose was measured using UV RADIOMETER UVR-3036/S (Topcon Corporation).
After the ultraviolet irradiation, the medium was switched back to the ordinary medium described above, and the culture was conducted in a 5% CO2 and saturated water vapor atmosphere at 37° C.
Thereafter, the culture medium was supplemented with Alamar Blue (trade mark, Invitrogen) at a final concentration of 10%, and its supernatant was determined for the fluorescent intensity three hours later with an excitation wavelength of 544 nm and a fluorescent wavelength of 590 nm as described by Ahmed S. A. et al. (J. Immunol. Method. 170, 211-224 (1994)) and in accordance with the manufacture's instruction.

[6] = Homo sapiens, Fibroblast, light or radiation study, read-out: percentage of the viable cell

SMILES | viability at 0.001 µM [1, 6] | viability at 0.01 µM [1, 6] | viability at 0.1 µM [1, 6] | viability at 1 µM [1, 6] | viability at 10 µM [1, 6] | viability at 100 µM [1, 6] | effect of pre-irradiation addition on viable cells and cell death (in words) [1] | effect on UV-B-induced wrinkling (in words) [2] | number of animals of each wrinkle score after the UV-B irradiation [2] | measured value of the skin thickness (skin thickness×2) ([3]; 10 mM in drinking water during 12 weeks UV-B, total 4.482 J/cm^2, UV(−)/H20 0.81 mm, UV(+)/H20 1.25 mm) | effect on UV-B-induced skin thickening (in words) ([3]; 10 mM in drinking water, UV-B total 4.482 J/cm^2, Bonferroni/Dunn test) | number of animals of each wrinkle score after the UV-B irradiation ([4]; UV-B total 4.482 J/cm^2, UV(+) control: 2 scored 4, two 5, one 6, one 7) | effect on UV-B-induced wrinkling (in words) ([4]; P=1.8% in Mann-Whitney U test) | percentage of the viable cell (positive control) ([5]; added at 0.1 μM, called positive control, negative control 64%) | effect of post-irradiation addition on viable cells and cell death (in words) ([5]; post-irradiation addition 0.01 to 100 μM) | percentage of the viable cell ([5]; post-irradiation addition at 0.01 μM, negative control 64%) | percentage of the viable cell ([5]; post-irradiation addition at 0.1 μM, negative control 64%) | percentage of the viable cell ([5]; post-irradiation addition at 1 μM, negative control 64%) | percentage of the viable cell ([5]; post-irradiation addition at 100 μM, negative control 64%)
CSCC[C@H](N)C(=O)O [L-methionine] | 40% | 72% | 67% | 45% | 73% | 62% | an increased percentage of the viable cell and a reduced cell death | less effective in reducing the UV-B irradiation-induced wrinkling than D-methionine | one animal scored 4, two animals scored 5, two animals scored 6 and two animals scored 7 | – | – | – | – | – | – | – | – | – | –
O=C(O)[C@H]1CCCN1 [D-proline, reference compound] | – | – | 100% | – | – | – | – | – | – | – | – | – | – | – | – | – | – | – | –
CSCC[C@@H](N)C(=O)O [D-methionine] | – | 102% | 81% | 97% | 114% | 76% | an increased percentage of the viable cell and a reduced cell death | statistically significant reduction in this wrinkling | six animals scored 5 and two animals scored 6 | 1.00 mm | statistically significant reduction in this skin thickening | four animals scored 3, two animals scored 4 and one animal scored 5 | statistically significant reduction in this wrinkling | 82% | an increased percentage of the viable cell and a reduced cell death | 93% | 84% | 82% | 87%

Reference: patent publication US20120189563A1, “ORAL COMPOSITION FOR ALLEVIATING ULTRAVIOLET IRRADIATION-INDUCED DAMAGE” (Shiseido Company, Ltd., priority 2009, published 2012)
